Assay results as given in US11759461B2, “Small molecule inhibitors of cancer stem cells and mesenchymal cancer types” (The Scripps Research Institute, priority 2017, dated 2023).
Where two headings read alike, the source gives them in different places.

Test system: FOXC2-expressing HMLER cells
Test: Cell Titer Glo viability of FOXC2-HMLER cells (high throughput screen and 10-point response)
Format: cell-based
Details: Homo sapiens, 72 hours
In short: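 Viability after 72 h compound exposure was measured as Cell Titer Glo luminescence. FOXC2-HMLER and parental HMLER cells, 1,000 per well in MEGM medium, were dosed 1 h after plating; screening concentration was 2 μM.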

[1] = scored relative to parent compound 3, read-out: Activity Score, inhibition of FOXC2-expressing HMLER cells by Formula III compounds
[2] = scored relative to parent compound 4, read-out: Activity Score, inhibition of FOXC2-expressing HMLER cells by Formula IV compounds

`CCN(Cc1ccccc1)C(=O)c1ccc(C)c(-n2nnc3cccnc32)c1` [Compound 3BG] was tested, and the IC50 [1] was > 20 µM.

In the case of `Cc1ccc(C(=O)NC2CCN(Cc3ccccc3)CC2)cc1-n1nnc2cccnc21` [Compound 3BH], the IC50 [1] is reported as > 20 µM.

`COc1ccc(N2CCN(C(=O)c3ccc(C)c(-n4nnc5cccnc54)c3)CC2)cc1` [Compound 3BI] was tested, and the IC50 [1] was > 20 µM.

With `Cc1ccc(C(=O)NCCCN(C)Cc2ccccc2)cc1-n1nnc2cccnc21` [Compound 3BJ] the IC50 [1] was > 20 µM.

For `Cc1ccc(C(=O)NCCCN2CCN(c3cccc(Cl)c3)CC2)cc1-n1nnc2cccnc21` [Compound 3BK], the IC50 [1] was > 20 µM.

For `Cc1ccc(C(=O)NCCCN2CCc3ccccc3C2)cc1-n1nnc2cccnc21` [Compound 3BL], the IC50 [1] was > 20 µM.

In the case of `Cc1ccc(C(=O)NCc2ccc(N(C)C)cc2)cc1-n1nnc2cccnc21` [Compound 3BM], the IC50 [1] is reported as > 20 µM.

With `Cc1c(C(=O)NCc2ccccc2)cccc1-n1nnc2cccnc21` [Compound 3BN] the IC50 [1] was > 20 µM.

For `Cc1c(C(=O)NC2CCCCCC2)cccc1-n1nnc2cccnc21` [Compound 3BO], the IC50 [1] was > 20 µM.

With `Cc1c(C(=O)N2CCN(C3CCCCC3)CC2)cccc1-n1nnc2cccnc21` [Compound 3BP] the IC50 [1] was > 20 µM.

`Cc1cccc(CNC(=O)c2cccc(-n3nnc4cccnc43)c2C)c1` [Compound 3BQ] was tested, and the IC50 [1] was > 20 µM.

For `Cc1c(C(=O)N2CCC(N3CCCCC3)CC2)cccc1-n1nnc2cccnc21` [Compound 3BR], the IC50 [1] was > 20 µM.

In the case of `CCCCN(C)C(=O)c1cccc(-n2nnc3cccnc32)c1C` [Compound 3BS], the IC50 [1] is reported as > 20 µM.

`Cc1c(C(=O)NCC(C)c2ccccc2)cccc1-n1nnc2cccnc21` (stereo not shown) [Compound 3BT] was tested, and the IC50 [1] was > 20 µM.

With `Cc1c(C(=O)NC2CCN(Cc3ccccc3)CC2)cccc1-n1nnc2cccnc21` [Compound 3BU] the IC50 [1] was > 20 µM.

In the case of `Cc1c(C(=O)N2CCN(Cc3ccc4c(c3)OCO4)CC2)cccc1-n1nnc2cccnc21` [Compound 3BV], the IC50 [1] is reported as > 20 µM.

For `Cc1c(C(=O)N2CCN(c3ccccc3F)CC2)cccc1-n1nnc2cccnc21` [Compound 3BW], the IC50 [1] was > 20 µM.

With `Cc1c(C(=O)NCCCN(C)Cc2ccccc2)cccc1-n1nnc2cccnc21` [Compound 3BX] the IC50 [1] was > 20 µM.

In the case of `Cc1c(C(=O)NCCN2CCCC2)cccc1-n1nnc2cccnc21` [Compound 3BY], the IC50 [1] is reported as > 20 µM.

In the case of `COc1ccc(N2CCN(CCCNC(=O)c3cccc(-n4nnc5cccnc54)c3C)CC2)cc1` [Compound 3BZ], the IC50 [1] is reported as > 20 µM.

In the case of `Cc1c(C(=O)N2CCN(c3cccc(Cl)c3)CC2)cccc1-n1nnc2cccnc21` [Compound 3B], the IC50 [1] is reported as < 1 µM.

`Cc1ccc(CN2CCC(CNC(=O)c3cccc(-n4nnc5cccnc54)c3C)CC2)cc1` [Compound 3CA] was tested, and the IC50 [1] was > 20 µM.

In the case of `Cc1c(C(=O)NCCCN2CCCC(C)C2)cccc1-n1nnc2cccnc21` (stereo not shown) [Compound 3CB], the IC50 [1] is reported as > 20 µM.

For `Cc1c(C(=O)NCCCN2CCN(c3ccc(F)cc3)CC2)cccc1-n1nnc2cccnc21` [Compound 3CC], the IC50 [1] was > 20 µM.

For `Cc1c(C(=O)NCCCN2CCN(Cc3ccccc3)CC2)cccc1-n1nnc2cccnc21` [Compound 3CD], the IC50 [1] was > 20 µM.

For `Cc1c(C(=O)NCCCN2CCC(N3CCCCC3)CC2)cccc1-n1nnc2cccnc21` [Compound 3CE], the IC50 [1] was > 20 µM.

With `Cc1c(C(=O)NCCN(C)C2CCCCC2)cccc1-n1nnc2cccnc21` [Compound 3CF] the IC50 [1] was > 20 µM.

For `Cc1c(C(=O)NCc2ccc(N(C)C)cc2)cccc1-n1nnc2cccnc21` [Compound 3CG], the IC50 [1] was > 20 µM.

`Cc1c(C(=O)NCCCN2CCN(C3CCCCC3)CC2)cccc1-n1nnc2cccnc21` [Compound 3CH] was tested, and the IC50 [1] was > 20 µM.

For `Cc1ccccc1CNC(=O)c1cccc(-n2nnc3cccnc32)c1C` [Compound 3CI], the IC50 [1] was > 20 µM.

In the case of `Cc1c(C(=O)NCCC(C)N2CCCC2)cccc1-n1nnc2cccnc21` (stereo not shown) [Compound 3CJ], the IC50 [1] is reported as > 20 µM.

`Cc1c(C(=O)NC(C)C(=O)N2CCCCC2)cccc1-n1nnc2cccnc21` (stereo not shown) [Compound 3CK] was tested, and the IC50 [1] was > 20 µM.

With `O=C(c1ccc(-n2nnc3cccnc32)cc1)N1CCN(c2ccc(F)cc2)CC1` [Compound 3C] the IC50 [1] was < 1 µM.

With `Cc1ccc(C)c(N2CCN(C(=O)c3cccc(-n4nnc5cccnc54)c3)CC2)c1` [Compound 3D] the IC50 [1] was < 1 µM.

For `Cc1ccc(Cl)cc1N1CCN(C(=O)c2cccc(-n3nnc4cccnc43)c2)CC1` [Compound 3E], the IC50 [1] was < 1 µM.

With `COc1cccc(N2CCN(C(=O)c3cccc(-n4nnc5cccnc54)c3C)CC2)c1` [Compound 3F] the IC50 [1] was < 1 µM.

With `Cc1ccc(C)c(N2CCN(C(=O)c3ccc(-n4nnc5cccnc54)cc3)CC2)c1` [Compound 3G] the IC50 [1] was 1 to 20 µM.

`Cc1ccc(Cl)cc1N1CCN(C(=O)c2ccc(-n3nnc4cccnc43)cc2)CC1` [Compound 3H] showed an IC50 [1] of 1 to 20 µM.

`Cc1cccc(N2CCN(C(=O)c3ccc(-n4nnc5cccnc54)cc3)CC2C)c1` (stereo not shown) [Compound 3I] showed an IC50 [1] of 1 to 20 µM.

Work on `O=C(c1ccc(-n2nnc3cccnc32)cc1)N1CCN(c2ccccc2F)CC1` [Compound 3J] yielded an IC50 [1] of 1 to 20 µM.

Compound `Cc1ccc(C)c(N2CCN(CCCNC(=O)c3ccc(-n4nnc5cccnc54)cc3)CC2)c1` [Compound 3K] has an IC50 [1] of 1 to 20 µM.

With `Cc1cc(C(=O)N2CCN(c3ccccc3)CC2)ccc1-n1nnc2cccnc21` [Compound 3L] the IC50 [1] was 1 to 20 µM.

Compound `Cc1cc(C(=O)N2CCC(Cc3ccccc3)CC2)ccc1-n1nnc2cccnc21` [Compound 3M] has an IC50 [1] of 1 to 20 µM.

In the case of `Cc1cc(C(=O)NC2CCN(Cc3ccccc3)CC2)ccc1-n1nnc2cccnc21` [Compound 3N], the IC50 [1] is reported as 1 to 20 µM.

`Cc1cc(C(=O)Nc2cccc(CN3CCCC3)c2)ccc1-n1nnc2cccnc21` [Compound 3O] showed an IC50 [1] of 1 to 20 µM.

Compound `O=C(c1cccc(-n2nnc3cccnc32)c1)N1CCN(c2ccccc2)CC1` [Compound 3P] has an IC50 [1] of 1 to 20 µM.

`O=C(c1cccc(-n2nnc3cccnc32)c1)N1CCN(c2cccc(Cl)c2)CC1` [Compound 3Q] was tested, and the IC50 [1] was 1 to 20 µM.

`O=C(c1cccc(-n2nnc3cccnc32)c1)N1CCN(C2CCCCC2)CC1` [Compound 3R] gave an IC50 [1] of 1 to 20 µM.

For `Cc1cccc(N2CCN(C(=O)c3cccc(-n4nnc5cccnc54)c3)CC2C)c1` (stereo not shown) [Compound 3S], the IC50 [1] was 1 to 20 µM.

`Cc1ccc(CN2CCC(CNC(=O)c3cccc(-n4nnc5cccnc54)c3)CC2)cc1` [Compound 3T] gave an IC50 [1] of 1 to 20 µM.

Compound `COc1cccc(N2CCN(C(=O)c3ccc(C)c(-n4nnc5cccnc54)c3)CC2)c1` [Compound 3U] has an IC50 [1] of 1 to 20 µM.

In the case of `Cc1ccc(C(=O)N2CCN(c3ccccc3)CC2)cc1-n1nnc2cccnc21` [Compound 3V], the IC50 [1] is reported as 1 to 20 µM.

With `Cc1ccc(C(=O)N2CCN(c3cccc(Cl)c3)CC2)cc1-n1nnc2cccnc21` [Compound 3W] the IC50 [1] was 1 to 20 µM.

`Cc1ccc(C)c(N2CCN(C(=O)c3ccc(C)c(-n4nnc5cccnc54)c3)CC2)c1` [Compound 3X] was tested, and the IC50 [1] was 1 to 20 µM.

Work on `Cc1ccc(Cl)cc1N1CCN(C(=O)c2ccc(C)c(-n3nnc4cccnc43)c2)CC1` [Compound 3Y] yielded an IC50 [1] of 1 to 20 µM.

Compound `Cc1ccc(C(=O)N2CCC(Cc3ccccc3)CC2)cc1-n1nnc2cccnc21` [Compound 3Z] has an IC50 [1] of 1 to 20 µM.

With `Cc1cccc(N2CCN(C(=O)c3cccc(-n4nnc5cccnc54)c3C)CC2C)c1` (stereo not shown) [Compound 3] the IC50 [1] was < 1 µM.

With `Cc1ccc(C)c(N2CCN(S(=O)(=O)c3c(C)nn(-c4ccc(F)cc4)c3C)CC2)c1` [Compound 4AA] the IC50 [2] was > 20 µM.

For `Cc1nn(-c2ccc(F)cc2)c(C)c1S(=O)(=O)N1CCN(c2ccccn2)CC1` [Compound 4AB], the IC50 [2] was > 20 µM.

For `Cc1nn(-c2ccc(F)cc2)c(C)c1S(=O)(=O)N1CCN(c2ccc(F)cc2)CC1` [Compound 4AC], the IC50 [2] was > 20 µM.

In the case of `Cc1ccc(-n2nc(C)c(S(=O)(=O)N3CCN(c4ccc(Cl)cc4)CC3)c2C)cc1` [Compound 4AD], the IC50 [2] is reported as > 20 µM.

With `Cc1ccc(-n2nc(C)c(S(=O)(=O)N3CCN(c4cccc(C)c4C)CC3)c2C)cc1` [Compound 4AE] the IC50 [2] was > 20 µM.

For `Cc1ccc(-n2nc(C)c(S(=O)(=O)N3CCN(c4ccccn4)CC3)c2C)cc1` [Compound 4AF], the IC50 [2] was > 20 µM.

With `Cc1c(S(=O)(=O)N2CCCN(c3ccc(=O)n(-c4ccc(F)cc4)n3)CC2)cnn1C(F)F` [Compound 4AG] the IC50 [2] was > 20 µM.

`Cc1ccc(-n2nc(N3CCCN(S(=O)(=O)c4cnn(C(F)F)c4C)CC3)ccc2=O)cc1C` [Compound 4AH] was tested, and the IC50 [2] was > 20 µM.

`Cc1ccc(-n2nc(N3CCCN(S(=O)(=O)c4cnn(C(F)F)c4C)CC3)ccc2=O)cc1` [Compound 4AI] was tested, and the IC50 [2] was > 20 µM.

`Cc1c(S(=O)(=O)N2CCN(c3ccc(=O)n(-c4ccc(F)cc4)n3)CC2)cnn1C(F)F` [Compound 4AJ] was tested, and the IC50 [2] was > 20 µM.

For `Cc1ccc(-n2nc(N3CCN(S(=O)(=O)c4cnn(C(F)F)c4C)CC3)ccc2=O)cc1C` [Compound 4AK], the IC50 [2] was > 20 µM.

With `Cc1c(S(=O)(=O)N2CCN(c3ccc(=O)n(-c4ccccc4)n3)CC2)cnn1C(F)F` [Compound 4AL] the IC50 [2] was > 20 µM.

With `Cc1c(S(=O)(=O)N2CCN(c3ccc(=O)n(-c4ccc(Cl)cc4)n3)CC2)cnn1C(F)F` [Compound 4AM] the IC50 [2] was > 20 µM.

In the case of `Cc1c(S(=O)(=O)N2CCN(C)c3ccccc32)cnn1C(F)F` [Compound 4AN], the IC50 [2] is reported as > 20 µM.

For `Cc1nn(-c2ccc(-c3ccccc3)nn2)c(C)c1S(=O)(=O)N1CCN(c2ccccc2)CC1` [Compound 4AO], the IC50 [2] was > 20 µM.

In the case of `Cc1nn(-c2ccc(-c3ccccc3)nn2)c(C)c1S(=O)(=O)N1CCN(c2ccccn2)CC1` [Compound 4AP], the IC50 [2] is reported as > 20 µM.

For `Cc1cccc(N2CCN(S(=O)(=O)c3c(C)nn(-c4ccc(-c5ccccc5)nn4)c3C)CC2)c1` [Compound 4AQ], the IC50 [2] was > 20 µM.

In the case of `Cc1ccccc1N1CCN(S(=O)(=O)c2c(C)nn(-c3ccc(-c4ccccc4)nn3)c2C)CC1` [Compound 4AR], the IC50 [2] is reported as > 20 µM.

In the case of `Cc1ccc(N2CCN(S(=O)(=O)c3c(C)nn(-c4ccc(-c5ccccc5)nn4)c3C)CC2)cc1` [Compound 4AS], the IC50 [2] is reported as > 20 µM.

`Cc1ccc(-c2ccc(-n3nc(C)c(S(=O)(=O)N4CCN(c5ccccc5)CC4)c3C)nn2)cc1` [Compound 4AT] was tested, and the IC50 [2] was > 20 µM.

For `Cc1ccc(-c2ccc(-n3nc(C)c(S(=O)(=O)N4CCN(C(C)C)CC4)c3C)nn2)cc1` [Compound 4AU], the IC50 [2] was > 20 µM.

With `Cc1c(S(=O)(=O)N2CCN(c3cc(-c4cccc(F)c4)ncn3)CC2)cnn1C(F)F` [Compound 4A] the IC50 [2] was < 1 µM.
